Experiment: Apparent and compacted bulk density (mass/volume, meshes 30, 80, 100)
Type: physicochemical
From the text: 2.—Apparent and compacted bulk density; for the test calcium gluconolactonate, from formula III, was classified in 3 different types of mesh 30, 80, and 100 to determine its apparent density. The same procedure was used to determine compacted bulk density. The compound was classified in the same 30, 80, and 100 meshes, determining its density, in both cases, in grams per milliliter, as shown in table II below:
The average density corresponds to a 30 mesh, for the most common form of the product. A table is attached with different tests performed to determine the average apparent and compacted bulk density, resulting, in the first case, in a[n apparent] density of 0.690 and a compacted bulk density of 0.883, as shown in table III below: […]

[1] = 30 mesh, average of tests 1 to 31

CC(O)C(=O)[O-].O=C([O-])[C@H](O)[C@@H](O)[C@H](O)[C@H](O)CO.[Ca+2] [calcium gluconolactate]
Apparent Density (30 mesh) (30 mesh, Mass/Volume): 0.690 g/mL | Compacted Bulk Density (30 mesh) (30 mesh, Mass/Volume): 0.883 g/mL | Apparent density, average [1]: 0.690 | Compacted Bulk density, average [1]: 0.883 | Apparent Density (80 mesh) (80 mesh, Mass/Volume): 0.655 g/mL | Compacted Bulk Density (80 mesh) (80 mesh, Mass/Volume): 0.904 g/mL | Apparent Density (100 mesh) (100 mesh, Mass/Volume): 0.609 g/mL | Compacted Bulk Density (100 mesh) (100 mesh, Mass/Volume): 0.874 g/mL
